Laboratory results as given in ChEMBL document CHEMBL1212812, “Multi-target spectral moment QSAR versus ANN for antiparasitic drugs against different parasite species” (Bioorg Med Chem, 2010).

Legend:
Type in all cases: functional, organism-based
Toxoplasma gondii = assay: Antimicrobial activity against Toxoplasma gondii; conditions: Toxoplasma gondii
Leishmania major = assay: Antimicrobial activity against Leishmania major
Cryptosporidium parvum = assay: Antimicrobial activity against Cryptosporidium parvum
Trypanosoma brucei = assay: Antimicrobial activity against Trypanosoma brucei
[1] = test system: Trypanosoma brucei rhodesiense; assay: Antimicrobial activity against Trypanosoma brucei rhodesiense
Plasmodium falciparum = assay: Antimicrobial activity against Plasmodium falciparum
Trypanosoma cruzi = assay: Antimicrobial activity against Trypanosoma cruzi; conditions: Trypanosoma cruzi
[2] = test system: Trypanosoma brucei brucei; assay: Antimicrobial activity against Trypanosoma brucei brucei
Leishmania donovani = assay: Antimicrobial activity against Leishmania donovani
Leishmania mexicana = assay: Antimicrobial activity against Leishmania mexicana

`CN[C@H]1[C@@H]2CN(c3nc4c(cc3F)c(=O)c(C(=O)O)cn4-c3ccc(F)cc3F)C[C@@H]21` [TROVAFLOXACIN2] was tested. Which IC50 (Toxoplasma gondii) did it give?
Its IC50 is 1 µM.

Which IC50 (Leishmania major) does the source give for `C=CC(C)(C)c1cc(/C=C/C(=O)c2ccc(O)cc2)c(OC)cc1O` [LICOAGROCHACONE A] here?
The IC50 was 14 µM.

How did the IC50 (Cryptosporidium parvum) turn out when `Nc1nc(N)c2nc(CN3c4ccccc4CC4C=CC=CC43)cnc2n1` (stereo unspecified) was run?
Its IC50 is 1000 nM.

Which IC50 (Cryptosporidium parvum) does the source give for `COc1cccc2nc(N)nc(N)c12` here?
The IC50 was 3000 nM.

`NCCCC12CC3CC(CC(C3)C1)C2` was tested. Which IC50 (Trypanosoma brucei) did it give?
The IC50 was 1000 nM.

For `COc1cc(Cc2sc3nc(N)nc(N)c3c2C)c(Br)c(OC)c1OC`, which IC50 (Cryptosporidium parvum) is on record?
Its IC50 is 2000 nM.

`O=C(CCN1CCCN(C(=O)OCc2ccccc2)C1)OCc1ccccc1` was tested. Which IC50 [1] did it give?
The IC50 was 3 µM.

`Cn1c2nc3ccccc3c-2cc2ccc(C(F)(F)F)cc21` was tested. Which IC50 (Plasmodium falciparum) did it give?
Its IC50 is 16 µM.

What about the IC50 (Trypanosoma brucei) of the same molecule?
Its IC50 is 17000 nM.

What about the IC50 (Trypanosoma cruzi) of the same molecule?
The IC50 was 32 µM.

How did the IC50 (Trypanosoma brucei) turn out when `CCCC1CC(C)(C)CC(C)(N)C1` (stereo unspecified) was run?
The IC50 was 3000 nM.

For `COc1ccc2[nH]c3nc4ccccc4c-3cc2c1`, which IC50 (Plasmodium falciparum) is on record?
The IC50 was 32 µM.

What about the IC50 (Trypanosoma brucei) of the same molecule?
Its IC50 is 32000 nM.

For `C[C@H]1[C@H](C)CC[C@]2(C(=O)O)CC[C@]3(C)C(=CC[C@@H]4[C@@]5(C)CC[C@H](O)C(C)(C)[C@@H]5CC[C@]43C)[C@H]12` [URSOLIC ACID], which IC50 (Toxoplasma gondii) is on record?
The IC50 was 1 µM.

Which IC50 (Toxoplasma gondii) does the source give for `COc1ccc(Sc2cc3ccccc3[nH]2)cc1` here?
Its IC50 is 17 µM.

Which IC50 (Toxoplasma gondii) does the source give for `Cc1c(F)c(N2C[C@@H]3[C@@H](N)[C@@H]3C2)nc2c1c(=O)c(C(=O)O)cn2-c1ccc(F)cc1F` [TROVAFLOXACIN3] here?
Its IC50 is 1 µM.

`CCCC1(CCC)CC(C)(C)CC(C)(N)C1` (stereo unspecified) was tested. Which IC50 (Trypanosoma brucei) did it give?
The IC50 was 1000 nM.

For `Nc1nc(N)c2nc(Cc3ccc(Cl)c(Cl)c3)c(Cc3ccc(Cl)c(Cl)c3)nc2n1`, which IC50 (Cryptosporidium parvum) is on record?
The IC50 was 4000 nM.

Which IC50 (Toxoplasma gondii) does the source give for `NC[C@@H]1[C@H]2CN(c3nc4c(cc3F)c(=O)c(C(=O)O)cn4-c3ccc(F)cc3F)C[C@@H]12` [TROVAFLOXACIN11] here?
Its IC50 is 9 µM.

For `COc1cccc2c1cc1c3ccccc3nc-1n2C`, which IC50 (Trypanosoma brucei) is on record?
Its IC50 is 1000 nM.

For `O=[N+]([O-])c1cccc(Sc2cc3ccccc3[nH]2)c1`, which IC50 (Toxoplasma gondii) is on record?
Its IC50 is 2 µM.

For `N=C(N)NCCCNCCNC(=N)N`, which IC50 [1] is on record?
Its IC50 is 20 µM.

With `COc1cc(Cc2sc3nc(N)nc(N)c3c2C)cc(OC)c1OC` as the molecule, how does the IC50 (Cryptosporidium parvum) read?
The IC50 was 2000 nM.

`CN(CCCNC(=O)OCc1ccccc1)CCNC(=O)OCc1ccccc1` was tested. Which IC50 [1] did it give?
The IC50 was 21 µM.

`COc1cc(CN2CCc3nc(N)nc(N)c3C2)c(Br)c(OC)c1OC` was tested. Which IC50 (Cryptosporidium parvum) did it give?
Its IC50 is 3000 nM.

`Nc1nc(N)c2c(n1)-c1ccsc1CC2` was tested. Which IC50 (Cryptosporidium parvum) did it give?
The IC50 was 30000 nM.

Which IC50 (Cryptosporidium parvum) does the source give for `Nc1nc(N)c2nc(CN3c4ccccc4SC4C=CC=CC43)cnc2n1` (stereo unspecified) here?
Its IC50 is 1000 nM.

How did the IC50 (Cryptosporidium parvum) turn out when `CCC1CCc2nc(N)nc(N)c2C1` (stereo unspecified) was run?
The IC50 was 9000 nM.

For `Nc1nc(N)c2c(n1)CCC(c1ccccc1)C2` (stereo unspecified), which IC50 (Cryptosporidium parvum) is on record?
The IC50 was 2000 nM.

How did the IC50 (Toxoplasma gondii) turn out when `c1ccc(Sc2cc3ccccc3[nH]2)cc1` was run?
Its IC50 is 1 µM.

Which IC50 [1] does the source give for `O=C(NCCCN1CCN(C(=O)OCc2ccccc2)C1)OCc1ccccc1` here?
The IC50 was 1 µM.

`O=[N+]([O-])c1ccc(Sc2cc3ccccc3[nH]2)cc1` was tested. Which IC50 (Toxoplasma gondii) did it give?
Its IC50 is 14 µM.

For `CN(Cc1cnc2nc(N)nc(N)c2n1)c1ccc(C(=O)NC(CO)CCO)cc1` (stereo unspecified), which IC50 (Cryptosporidium parvum) is on record?
Its IC50 is 2000 nM.

Which results are given for `CCCN(CCC)c1ccc(S(=O)(=O)Nc2ccccc2)cc1[N+](=O)[O-]`?
IC50 [2]: 20 µM; IC50 (Leishmania donovani): 43 µM

`CCCCCCN(CCCCCC)S(=O)(=O)c1cc([N+](=O)[O-])c(N(CCC)CCC)c([N+](=O)[O-])c1` was tested. Which IC50 [2] did it give?
The IC50 was 50 µM.

What about the IC50 (Leishmania donovani) of the same molecule?
The IC50 was 100 µM.

Which IC50 (Leishmania mexicana) does the source give for `N=C(N)c1ccc(/C=C/c2ccc(C(=N)N)cc2)cc1` [STILBAMIDINE] here?
Its IC50 is 9 µM.

`[O-][S+](c1ccccc1)c1cc2ccccc2[nH]1` (stereo unspecified) was tested. Which IC50 (Toxoplasma gondii) did it give?
Its IC50 is 50 µM.

`NC12CC1CN(c1nc3c(cc1F)c(=O)c(C(=O)O)cn3-c1ccc(F)cc1F)C2` (stereo unspecified) [TROVAFLOXACIN8] was tested. Which IC50 (Toxoplasma gondii) did it give?
Its IC50 is 7 µM.

For `Cn1c2nc3ccc(C#N)cc3c-2cc2cc(C(F)(F)F)ccc21`, which IC50 (Trypanosoma brucei) is on record?
Its IC50 is 32000 nM.

What about the IC50 (Trypanosoma cruzi) of the same molecule?
The IC50 was 32 µM.

`NC(=O)c1nnn(Cc2cc(Cl)c(C(=O)C34CC5CC(CC(C5)C3)C4)c(Cl)c2)c1N` was tested. Which IC50 (Toxoplasma gondii) did it give?
Its IC50 is 15 µM.

With `CN(CCN)CCCN` as the molecule, how does the IC50 [1] read?
The IC50 was 69 µM.

`CCCCC12CC3CC(C1)CC(NC)(C3)C2` was tested. Which IC50 (Trypanosoma brucei) did it give?
Its IC50 is 2000 nM.

Which results are given for `Cn1c2nc3ccccc3c-2cc2ccc(Br)cc21`?
IC50 (Plasmodium falciparum): 30 µM; IC50 (Trypanosoma brucei): 27000 nM; IC50 (Trypanosoma cruzi): 32 µM

With `COc1cc(Cc2csc3nc(N)nc(N)c23)c(Br)c(OC)c1OC` as the molecule, how does the IC50 (Cryptosporidium parvum) read?
The IC50 was 3000 nM.

Which IC50 (Cryptosporidium parvum) does the source give for `COc1ccc(OC)c(NCc2ccc3nc(N)nc(N)c3n2)c1` here?
The IC50 was 1000 nM.

`CCCC1(C)CC(C)(C)CC(C)(N)C1` (stereo unspecified) was tested. Which IC50 (Trypanosoma brucei) did it give?
Its IC50 is 2000 nM.

For `N=C(N)c1ccc(NC(=O)Cn2ccnc2[N+](=O)[O-])cc1`, which IC50 [2] is on record?
Its IC50 is 200 µM.

What about the IC50 [1] of the same molecule?
Its IC50 is 6 µM.

For `Nc1nc(N)c2c(n1)CCC(Cc1ccsc1)C2` (stereo unspecified), which IC50 (Cryptosporidium parvum) is on record?
Its IC50 is 1000 nM.

What does the source list for `Cn1c2nc3ccc(C#N)cc3c-2cc2ccccc21`?
IC50 (Plasmodium falciparum): 32 µM; IC50 (Trypanosoma brucei): 32000 nM

How did the IC50 (Toxoplasma gondii) turn out when `c1ccc2[nH]c(Sc3cccc4ccccc34)cc2c1` was run?
The IC50 was 3 µM.

`CC(=O)OCCN(CCCNC(=O)OCc1ccccc1)CCNC(=O)OCc1ccccc1` was tested. Which IC50 [1] did it give?
The IC50 was 30 µM.

For `CCCN(CCC)c1c([N+](=O)[O-])cc(S(=O)(=O)N2CCOCC2)cc1[N+](=O)[O-]`, which IC50 [2] is on record?
The IC50 was 100 µM.

What about the IC50 (Leishmania donovani) of the same molecule?
The IC50 was 100 µM.

For `Nc1nc(N)c2cc(/C=C/c3ccccc3)ccc2n1`, which IC50 (Cryptosporidium parvum) is on record?
Its IC50 is 1000 nM.
